US5160727A, “Tumor cell sensitization method using quinazolinedione derivatives” (priority 1990, dated 1992)
Structures can show the parent of a compound that is named as a salt. Where two headings read alike, the source gives them in different places.

How the values were obtained:
Assay type in all cases: cell-based, murine
P388R cells = test: Potentiation of adriamycin activity and cell growth in P388 resistant cells (Table II); conditions: for activity at 5 µM / activity at 10 µM: Mus musculus; for Degree of ADR Potentiation in P388R: footnote a (drawing 3)
Experimental: The P388 murine leukemia cells used in obtaining the data set forth in Table I and Table II were obtained from Southern Research Institute (Birmingham, Ala.) and were cultured from ascites fluids of tumor-bearing DMA/2 mice and maintained in Fischer's medium supplemented with 10% horse serum, 10 μM 2-mercaptoethanol, and gentamycin (50 μg/mL). Cells were counted with a Model ZF Coulter Counter (Coulter Electronics, Inc., Hialeah, Fla.). Viability was determined by trypan blue exclusion. […] Cancer Inst.

P388S cells = test: 72-hour growth inhibition of drug-sensitive P388S cells by anticancer drug alone or with modifier (Table I); conditions: for IC50: Mus musculus, P388/S, 72 h, P388S, mean of two experiments in triplicate, read-out: ID50 (concentration that inhibits 72-hour cell growth by 50%)
Experimental: (§1) In performing the studies P388 that were sensitive to adriamycin (P388S) and P388 cells that were resistant to adriamycin (P388/ADR) were exposed to various concentrations of anticancer drug either alone or together with 5 μg/mL of modifier or sensitizer for 72 hours.
(§2) The P388 murine leukemia cells used in obtaining the data set forth in Table I and Table II were obtained from Southern Research Institute (Birmingham, Ala.) and were cultured from ascites fluids of tumor-bearing DMA/2 mice and maintained in Fischer's medium supplemented with 10% horse serum, 10 μM 2-mercaptoethanol, and gentamycin (50 μg/mL). Cells were counted with a Model ZF Coulter Counter (Coulter Electronics, Inc., Hialeah, Fla.). Viability was determined by trypan blue exclusion. The general methodology is described by W. D. Klohs, et al, Cancer Research 46, 4352-4356 (September 1986) and W. D. Klohs, et al, J. Nat'l. Cancer Inst. 75, 353-359 (1985).

P388/ADR cells = test: 72-hour growth inhibition of adriamycin-resistant P388/ADR cells by anticancer drug alone or with modifier (Table I); conditions: Mus musculus, mean of two experiments in triplicate, read-out: ID50 (concentration that inhibits 72-hour cell growth by 50%)
Experimental: as §1, §2

[1] = P388, test compound at 5 μM, read-out: % of Control Cell Growth
[2] = P388, test compound at 10 μM, read-out: % of Control Cell Growth
[3] = test compound at 5 μM with adriamycin
[4] = test compound at 10 μM with adriamycin
[5] = P388, read-out: % of Control Cell Growth
[6] = anticancer drug alone, modifier none
[7] = anticancer drug with modifier CsA (cyclosporin A) 5 μg/mL
[8] = anticancer drug with modifier TIOP (tioperidone) 5 μg/mL
[9] = anticancer drug with modifier VER (verapamil) 5 μg/mL

Compound | activity at 5 µM (P388R cells; [1]) [%] | activity at 10 µM (P388R cells; [2]) [%] | Degree of ADR Potentiation in P388R (P388R cells; [3]) | Degree of ADR Potentiation in P388R (P388R cells; [4]) | further results
CCCCSc1ccccc1N1CCN(CCCCn2c(=O)[nH]c3ccccc3c2=O)CC1.Cl [Example 8, 3-[4-[4-[2-(butylthio)phenyl]-1-piperazinyl]butyl]-2,4-(1H,3H)-quinazolinedione monohydrochloride] | 88 | 86 | 25.0 | 48.4 | –
Cl.O=c1[nH]c2ccccc2c(=O)n1CCCCN1CCN(c2cccc(Cl)c2Cl)CC1 [Example 4, 3-[4-[4-(2,3-dichlorophenyl)-1-piperazinyl]butyl]-2,4-(1H,3H)-quinazolinedione monohydrochloride] | – | – | 21.8 | 31.7 | activity at 5 µM (P388R cells; [5]): 76%; activity at 10 µM (P388R cells; [5]): 76%
CCCSc1ccccc1N1CCN(CCCCn2c(=O)[nH]c3ccc(C)cc3c2=O)CC1.Cl [Example 10, 6-methyl-3-[4-[4[2(propylthio)phenyl]-1-piperazinyl]butyl]-2,4(1H,3H)-quinazolinedione monohydrochloride] | 92 | 85 | 21.0 | 48.4 | –
CSc1ccccc1N1CCN(CCCCn2c(=O)[nH]c3ccccc3c2=O)CC1 [Example 7, 3-[4-[4-[2-methylthio)phenyl]-1-piperazinyl]butyl]-2,4(1H,3H)quinazolinedione monohydrochloride] | 95 | 72 | 25.2 | 48.4 | –
CC[C@]1(O)C[C@H]2CN(CCc3c([nH]c4ccccc34)[C@@](C(=O)OC)(c3cc4c(cc3OC)N(C=O)[C@H]3[C@@](O)(C(=O)OC)[C@H](OC(C)=O)[C@]5(CC)C=CCN6CC[C@]43[C@@H]65)C2)C1 [Vincristine] | – | – | – | – | IC50 (P388S cells; [6]): 21 nM; IC50 (P388S cells; [7]): 21 nM; IC50 (P388S cells; [8]): 20 nM; IC50 (P388S cells; [9]): 21 nM; IC50 (P388/ADR cells; [6]): 554 nM; IC50 (P388/ADR cells; [7]): 27 nM; IC50 (P388/ADR cells; [8]): 22 nM; IC50 (P388/ADR cells; [9]): 30 nM
CCCSc1ccccc1N1CCN(CCCCn2c(=O)c3cccc(OC)c3n(C)c2=O)CC1.Cl [Example 18, 8-methoxy-1-methyl-3-[4-[4-[2-(propylthio)phenyl]-1-piperazinyl]butyl]-2,4-(1H,3H)quinazolinedione monohydrochloride] | 100 | 87 | 21.1 | 24.6 | –
CCCSc1ccccc1N1CCN(CCCCn2c(=O)c3ccccc3n(C)c2=O)CC1 [Example 12, 1-methyl-3-[4-[4-[2-(propylthio)phenyl]-1-piperazinyl]butyl] -2,4-(1H,3H)quinazolinedione] | 100 | 87 | 17.9 | 39.1 | –
COc1cc(NCc2ccc3nc(N)nc(N)c3c2C)cc(OC)c1OC [Trimetrexate] | – | – | – | – | IC50 (P388S cells; [6]): 12 nM; IC50 (P388S cells; [7]): 11 nM; IC50 (P388S cells; [8]): 12 nM; IC50 (P388S cells; [9]): 12 nM; IC50 (P388/ADR cells; [6]): 270 nM; IC50 (P388/ADR cells; [7]): 12 nM; IC50 (P388/ADR cells; [8]): 14 nM; IC50 (P388/ADR cells; [9]): 29 nM
CCCSc1ccccc1N1CCN(CCCCn2c(=O)[nH]c3cc(OC)c(OC)cc3c2=O)CC1 [Example 13, 6,7-dimethoxy-3-[4-[4-[2-(propylthio)phenyl]-1-piperazinyl]butyl]-2,4-(1H,3H)-quinazolinedione] | 100 | 10.4 | 93.0 | 52.2 | –
CCCSc1ccccc1N1CCN(CCCCn2c(=O)[nH]c3c(OC)cccc3c2=O)CC1 [Example 17, 8-methoxy-3-[4-[4-[2-(propylthio)phenyl]-1-piperazinyl]butyl]-2,4-(1H,3H)quinazolinedione] | 83 | 39 | 3.4 | 67.2 | –
CCCSc1ccccc1N1CCN(CCCCn2c(=O)c3cc(OC)c(OC)cc3n(C)c2=O)CC1 [Example 15, 6,7-dimethoxy-1-methyl-3-[4-[4-[2-(propylthio)phenyl]-1-piperazinyl]butyl]-2,4(1H,3H)-quinazolinedione] | 46 | 2.6 | 21.2 | – | –
CCCSc1ccccc1N1CCN(CCCCn2c(=O)[nH]c3cc(Cl)ccc3c2=O)CC1.Cl [Example 9, 7-chloro-3-[4-[4-[2-(propylthio)phenyl]-1-piperazinyl]butyl]2,4(1H,3H)-quinazolinedione monohydrochloride] | 100 | 85 | 22.2 | 35.4 | –
CCCSc1ccccc1N1CCN(CCCCCn2c(=O)[nH]c3cc(OC)c(OC)cc3c2=O)CC1 [Example 14, 6,7-dimethoxy-3-[5-[4-[2-(propylthio)phenyl]-1-piperazinyl]pentyl]-2,4(1H,3H)-quinazolinedione] | 53 | 1.2 | 65.0 | – | –
cyclosporin A | – | – | – | – | effect on adriamycin activity in drug-sensitive parent P388S cells (P388S cells; modifier with adriamycin): little effect
CCSc1ccccc1N1CCN(CCCCn2c(=O)[nH]c3ccccc3c2=O)CC1.Cl [Example 5, 3-[4-[4-[2-(ethylthio)phenyl)-1-piperazinyl]butyl]-2,4-(1H,3H)-quinazolinedione monohydrochloride] | 79 | 78 | 19.6 | 46.6 | –
CC(C)Sc1ccccc1N1CCN(CCCCn2c(=O)[nH]c3ccccc3c2=O)CC1.Cl [Example 6, 3-[4-[4-[2-[(1-methylethyl)thio]phenyl]-1-piperazinyl]butyl]-2,4-(1H,3H)-quinazolinedione monohydrochloride] | 91 | 59 | 24.2 | 52.2 | –
CCCSc1ccccc1N1CCN(CCCCCn2c(=O)[nH]c3ccccc3c2=O)CC1 [Example 19, 3-[5-[4-[2-(propylthio)phenyl]-1-piperazinyl]pentyl]-2,4-(1H,3H)-quinazolinedione] | 100 | 68 | 36.7 | 66.9 | –
CCCSc1ccccc1N1CCN(CCCCCCn2c(=O)[nH]c3ccccc3c2=O)CC1 [Example 11, 3-[6-[4-[2-(propylthio)phenyl]-1-piperazinyl]hexyl]-2,4-(1H,3H)quinazolinedione monohydrochloride, 1/3 hydrate] | 99 | 66 | 73.8 | 52.2 | –
CCCSc1ccccc1N1CCN(CCCCn2c(=O)[nH]c3ccc(Cl)cc3c2=O)CC1.Cl [Example 3, 6-chloro-3-[4-[4-[2-(propylthio)phenyl]-1-piperazinyl]butyl]-2,4-(1H,3H)quinazolinedione monohydrochloride] | 100 | 88 | 19.6 | 44.7 | –
CCCSc1ccccc1N1CCN(CCCCCn2c(=O)c3cc(OC)c(OC)cc3n(C)c2=O)CC1 [Example 16, 6,7-dimethoxy-1-methyl-3-[5-[4-[2-(propylthio)phenyl]-1-piperazinyl]pentyl]-2,4(1H,3H)-quinazolinedione] | 33 | 4.2 | 44.5 | – | –
CCCSc1ccccc1N1CCN(CCCn2c(=O)[nH]c3ccccc3c2=O)CC1.Cl [Example 2, 3-[3-[4-[2-(propylthio)phenyl]-1-piperazinyl]propyl]-2,4-(1H,3H)-quinazolinedione monohydrochloride] | 89 | 87 | 13.1 | 22.0 | –
